Measured values published in the supplement of paper PMC11451515.

Test system: P12-Ichikawa
Assay: cell viability relative to DMSO control; higher = less cytotoxic
Settings: 48 h
Method in brief: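 Viability is a per-plate percentage relative to DMSO wells, with cell-free wells as background. CellTiter-Glo One luminescence was read after 48 h at 37°C on 1536-well plates (5 μl) of NOMO1 or SEM (500 cells/well) or P12-Ichikawa (1000 cells/well) leukemia cells. The cells had been adapted for at least four passages in each medium and pin-dosed with library compounds in DMSO from 47 μM to 0.79 nM in 11 threefold steps.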

[1] = HPLM + 10% dialyzed FBS, 0.000781 µM
[2] = HPLM + 10% dialyzed FBS, 0.00234 µM
[3] = HPLM + 10% dialyzed FBS, 0.00702 µM
[4] = HPLM + 10% dialyzed FBS, 0.0211 µM
[5] = HPLM + 10% dialyzed FBS, 0.0632 µM
[6] = HPLM + 10% dialyzed FBS, 0.19 µM
[7] = HPLM + 10% dialyzed FBS, 0.569 µM
[8] = HPLM + 10% dialyzed FBS, 1.71 µM
[9] = HPLM + 10% dialyzed FBS, 5.12 µM
[10] = HPLM + 10% dialyzed FBS, 15.4 µM
[11] = HPLM + 10% dialyzed FBS, 46.1 µM
[12] = RPMI 5 mM glucose + 10% FBS, 0.000781 µM
[13] = RPMI 5 mM glucose + 10% FBS, 0.00234 µM
[14] = RPMI 5 mM glucose + 10% FBS, 0.00702 µM
[15] = RPMI 5 mM glucose + 10% FBS, 0.0211 µM
[16] = RPMI 5 mM glucose + 10% FBS, 0.0632 µM
[17] = RPMI 5 mM glucose + 10% FBS, 0.19 µM
[18] = RPMI 5 mM glucose + 10% FBS, 0.569 µM
[19] = RPMI 5 mM glucose + 10% FBS, 1.71 µM
[20] = RPMI 5 mM glucose + 10% FBS, 5.12 µM
[21] = RPMI 5 mM glucose + 10% FBS, 15.4 µM
[22] = RPMI 5 mM glucose + 10% FBS, 46.1 µM
[23] = RPMI 5 mM glucose + 10% dialyzed FBS, 0.000781 µM
[24] = RPMI 5 mM glucose + 10% dialyzed FBS, 0.00234 µM
[25] = RPMI 5 mM glucose + 10% dialyzed FBS, 0.00702 µM
[26] = RPMI 5 mM glucose + 10% dialyzed FBS, 0.0211 µM
[27] = RPMI 5 mM glucose + 10% dialyzed FBS, 0.0632 µM
[28] = RPMI 5 mM glucose + 10% dialyzed FBS, 0.19 µM
[29] = RPMI 5 mM glucose + 10% dialyzed FBS, 0.569 µM
[30] = RPMI 5 mM glucose + 10% dialyzed FBS, 1.71 µM
[31] = RPMI 5 mM glucose + 10% dialyzed FBS, 5.12 µM
[32] = RPMI 5 mM glucose + 10% dialyzed FBS, 15.4 µM
[33] = RPMI 5 mM glucose + 10% dialyzed FBS, 46.1 µM

Structure (SMILES) | cell viability [1] | cell viability [2] | cell viability [3] | cell viability [4] | cell viability [5] | cell viability [6] | cell viability [7] | cell viability [8] | cell viability [9] | cell viability [10] | cell viability [11] | cell viability [12] | cell viability [13] | cell viability [14] | cell viability [15] | cell viability [16] | cell viability [17] | cell viability [18] | cell viability [19] | cell viability [20] | cell viability [21] | cell viability [22] | cell viability [23] | cell viability [24] | cell viability [25] | cell viability [26] | cell viability [27] | cell viability [28] | cell viability [29] | cell viability [30] | cell viability [31] | cell viability [32] | cell viability [33]
CNc1nc(Nc2cnn([C@H]3CCN(C4COC4)C[C@@H]3F)c2Cl)ncc1C(F)(F)F | 91% | 100% | 108% | 108% | 102% | 92.9% | 98.5% | 53.3% | 24.9% | 30% | 28% | 93.9% | 106% | 99.6% | 106% | 115% | 112% | 115% | 99.1% | 54% | 22.2% | 39.2% | 100% | 103% | 110% | 120% | 115% | 111% | 114% | 93.1% | 54.3% | 34.8% | 38.1%
COC(=O)c1ccc2c(c1)NC(=O)/C2=C(\Nc1ccc(N(C)C(=O)CN2CCN(C)CC2)cc1)c1ccccc1 | 105% | 109% | 102% | 101% | 92.6% | 101% | 102% | 102% | 98.6% | 95.9% | 96.9% | 106% | 102% | 96.1% | 86% | 101% | 104% | 101% | 94% | 102% | 97.3% | 89.3% | 102% | 104% | 104% | 90.2% | 101% | 99% | 95.6% | 93.4% | 99.4% | 86.2% | 93.5%
CC[C@H]1OC(=O)[C@H](C)C(=O)[C@H](C)[C@@H](O[C@H]2O[C@H](C)C[C@H](N(C)C)[C@H]2O)[C@](C)(OC)C[C@@H](C)C(=O)[C@H](C)[C@H]2N(CCCCn3cnc(-c4cccnc4)c3)C(=O)O[C@]12C | 102% | 119% | 98.3% | 115% | 120% | 116% | 99.1% | 98.3% | 104% | 96.1% | 96.1% | 103% | 109% | 111% | 115% | 122% | 104% | 88.3% | 89.5% | 103% | 105% | 96.5% | 111% | 122% | 140% | 147% | 130% | 82% | 63.3% | 89.9% | 114% | 92.6% | 97.5%
C[C@@H](CN1CC(=O)NC(=O)C1)N1CC(=O)NC(=O)C1 | 104% | 111% | 110% | 109% | 108% | 75% | 47% | 11.5% | 13.7% | 4.45% | 2.49% | 101% | 104% | 98.5% | 116% | 111% | 97.7% | 80.7% | 18.1% | 18.9% | 5.1% | 4.44% | 94.6% | 108% | 96.8% | 110% | 105% | 84% | 61.3% | 19.7% | 20% | 6.43% | 4.62%
COc1cccc2c1C(=O)c1c(O)c3c(c(O)c1C2=O)C[C@@](O)(C(=O)CO)C[C@@H]3O[C@H]1C[C@H](N)[C@H](O)[C@H](C)O1 | 115% | 114% | 112% | 117% | 116% | 107% | 98.6% | 58.2% | 7.45% | 5.63% | 11.9% | 113% | 116% | 119% | 114% | 113% | 108% | 93.8% | 44.7% | 7.04% | 5.82% | 8.62% | 109% | 114% | 108% | 107% | 117% | 106% | 92.2% | 67% | 7.81% | 7.58% | 13%
Nc1ncnc2c1ncn2[C@@H]1O[C@H](CO)C[C@H]1O | 92.5% | 96.4% | 92.8% | 93.1% | 98.8% | 94.1% | 93.1% | 88.8% | 92.2% | 89.3% | 89% | 87.9% | 104% | 94% | 94.4% | 87.7% | 96% | 93% | 93.5% | 85.3% | 86.8% | 87.6% | 83.8% | 90.1% | 97.7% | 90.9% | 87.4% | 91.2% | 94.5% | 87.6% | 86.1% | 89.6% | 92.3%
CN1\C=N/C2=CC=C(NC3=CC(=CC=C3C)NC(=O)C4=CC(=CC=C4)C(C)(C)C#N)C=C2C1=O | 97.1% | 96.9% | 101% | 97.8% | 101% | 94.6% | 87% | 87.4% | 68.5% | 69.3% | 63.2% | 90.4% | 98.7% | 99% | 95% | 96.7% | 93% | 83.6% | 81.3% | 59.6% | 58.4% | 44.4% | 97.5% | 104% | 94% | 102% | 99.5% | 98.7% | 93.3% | 84.8% | 73.4% | 64.1% | 48.1%
